Measured values: ChEMBL document CHEMBL3638480, “Inhibitors” (2013)

Biological target: Glutaminyl-peptide cyclotransferase (Homo sapiens, UniProt Q16769)
Experiment: Spectrophotometic Assay: Spectrophotometic Assay: This novel assay was used to determine the kinetic parameters for most of the QC substrates. QC activity was analyzed spectrophotometrically using a continuous method, that was derived by adapting a previous discontinuous assay (Bateman, R.C.J. 1989 J Neurosci Methods 30, 23-28).

Sequence of Glutaminyl-peptide cyclotransferase (Q16769 whole entry): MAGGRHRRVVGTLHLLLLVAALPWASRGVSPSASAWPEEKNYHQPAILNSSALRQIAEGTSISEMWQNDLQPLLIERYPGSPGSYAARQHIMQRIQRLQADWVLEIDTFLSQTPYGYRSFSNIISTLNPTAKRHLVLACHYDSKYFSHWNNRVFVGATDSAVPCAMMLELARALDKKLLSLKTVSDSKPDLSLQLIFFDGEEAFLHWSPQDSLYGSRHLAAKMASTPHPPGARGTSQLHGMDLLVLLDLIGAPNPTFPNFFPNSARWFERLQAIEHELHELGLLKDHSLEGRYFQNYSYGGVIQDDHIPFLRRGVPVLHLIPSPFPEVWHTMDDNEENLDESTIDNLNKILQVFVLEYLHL

| Compound | IC50 |
| --- | --- |
| COc1cc(C2CNC(=O)N2c2ccn3ccnc3c2)cc2c1OCO2 (stereo not drawn) | < 10 µM |
| COc1ccc(C2CN(N)C(=O)N2c2ccc3[nH]cnc3c2)cc1 (stereo not drawn) | < 10 µM |
| O=C1NCC(c2ccc(OC(F)(F)C(F)F)cc2)N1c1ccc2[nH]cnc2c1 (stereo not drawn) | < 10 µM |
| O=C1OCC(c2ccc(C3CCC(N4CCOCC4)CC3)cc2)N1c1ccc2[nH]cnc2c1 (stereo not drawn) | < 10 µM |
| CCCOc1ccc([C@H]2COC(=O)N2c2cc(C)c3[nH]cnc3c2)cc1 | < 10 µM |
| COc1cc(F)c(C2CNC(=O)N2c2ccn3ccnc3c2)c(F)c1 (stereo not drawn) | < 10 µM |
| COC1CCC(c2ccc(C3COC(=O)N3c3ccc4[nH]cnc4c3)cc2)CC1 (stereo not drawn) | < 10 µM |
| O=C1c2ccccc2[C@H](c2ccc(Cl)cc2)N1c1ccc2[nH]cnc2c1 | < 10 µM |
| Cc1nc2ccc(N3C(=O)OC[C@@H]3c3ccccc3)cc2[nH]1 | < 10 µM |
| Cc1cc(N2C(=O)OC[C@@H]2c2ccccc2)cc2nc[nH]c12 | < 10 µM |
| CC1(C)OC(=O)N(c2ccc3nc[nH]c3c2)[C@H]1c1ccccc1 | < 10 µM |
| O=C1OC[C@H](c2ccc(N3CCCCC3)cc2)N1c1ccn2ccnc2c1 | < 10 µM |
| O=C1NCC(c2cc(C(F)(F)F)ccc2F)N1c1ccc2[nH]cnc2c1 (stereo not drawn) | < 10 µM |
| CCN(CC)c1ccc([C@H]2CNC(=O)N2c2ccc3[nH]cnc3c2)cc1 | < 10 µM |
| O=C1NCC(c2ccccc2F)N1c1ccc2[nH]cnc2c1 (stereo not drawn) | < 10 µM |
| O=C1OC[C@H](c2ccc(N3CCN(c4ccccc4)CC3)cc2)N1c1ccn2ccnc2c1 | < 10 µM |
| O=C1OC[C@H](C2CCN(c3ccccc3)CC2)N1c1ccc2[nH]cnc2c1 | < 10 µM |
| O=C1CCC(c2ccc(C3COC(=O)N3c3ccc4[nH]cnc4c3)cc2)CC1 (stereo not drawn) | < 10 µM |
| O=C1NCC(c2ccc(OCCN3CCOCC3)cc2)N1c1ccn2ccnc2c1 (stereo not drawn) | < 10 µM |
| COCCCc1ccc(C2CNC(=O)N2c2ccc3[nH]cnc3c2)cc1 (stereo not drawn) | < 10 µM |
| O=C1OC[C@H](c2ccc(N(C3CC3)C3CC3)cc2)N1c1ccc2[nH]cnc2c1 | < 10 µM |
| O=C1NCC(C2CCC(c3ccccc3)CC2)N1c1ccc2nc[nH]c2c1 (stereo not drawn) | < 10 µM |
| COc1cc(C2CNC(=O)N2c2ccc3[nH]cnc3c2)cc2c1OCO2 (stereo not drawn) | < 10 µM |
| O=C1OC[C@H](c2ccccc2)N1c1ccc2[nH]cnc2c1 | < 10 µM |
| COCCCc1ccc([C@H]2COC(=O)N2c2ccc3[nH]cnc3c2)cc1 | < 10 µM |
| CCCOc1ccc(C[C@H]2COC(=O)N2c2ccc3[nH]cnc3c2)cc1 | < 10 µM |

Now from value to compound:

| IC50 | Compound |
| --- | --- |
| < 10 µM | O=C1NCC(c2ccc(F)cc2)N1c1ccc2[nH]cnc2c1 (stereo not drawn) |
| < 10 µM | O=C1OC[C@H](c2cccc(N3CCOCC3)c2)N1c1ccc2[nH]cnc2c1 |
| < 10 µM | O=C1NCC(c2ccc(-c3cccc(Cl)c3)cc2)N1c1ccc2[nH]cnc2c1 (stereo not drawn) |
| < 10 µM | O=C1OC[C@H](c2cccc(N3CCN(c4ccccc4)CC3)c2)N1c1ccc2nc[nH]c2c1 |
| < 10 µM | O=C1NCC(c2cccc(Cl)c2Cl)N1c1ccc2nc[nH]c2c1 (stereo not drawn) |
| < 10 µM | O=C1OC[C@H](c2ccc(Cl)cc2)N1c1ccc2nc[nH]c2c1 |
| < 10 µM | O=C1NCC(c2cccc(Cl)c2)N1c1ccc2nc[nH]c2c1 (stereo not drawn) |
| < 10 µM | O=C1NCC(c2ccc(O)cc2)N1c1ccc2[nH]cnc2c1 (stereo not drawn) |
| < 10 µM | O=C1OC[C@H](c2ccc(-c3cccc(Cl)c3)cc2)N1c1ccc2nc[nH]c2c1 |
| < 10 µM | CCCCCOc1ccc(C2CNC(=O)N2c2ccc3nc[nH]c3c2)cc1 (stereo not drawn) |
| < 10 µM | COc1cccc(C2CNC(=O)N2c2ccc3nc[nH]c3c2)c1 (stereo not drawn) |
| < 10 µM | O=C1OC[C@H](c2cccc(Cl)c2)N1c1ccc2nc[nH]c2c1 |
| < 10 µM | O=C1NCC(c2ccc(N3CCN(c4ccccc4)CC3)cc2)N1c1ccc2nc[nH]c2c1 (stereo not drawn) |
| < 10 µM | CCCCOc1ccc(C2CNC(=O)N2c2ccc3nc[nH]c3c2)cc1 (stereo not drawn) |
| < 10 µM | O=C1NCC(c2ccc(N3CCOCC3)c(Cl)c2)N1c1ccc2nc[nH]c2c1 (stereo not drawn) |
| < 10 µM | O=C1OC[C@H](c2ccc(OCCN3CCOCC3)cc2)N1c1ccc2[nH]cnc2c1 |
| < 10 µM | O=C1OC[C@H](c2ccc(N3CCOCC3)cc2)N1c1ccc2[nH]cnc2c1 |
